Measured values reported in ChEMBL document CHEMBL2016451, “Antimycobacterial activity of bisbenzylisoquinoline alkaloids from Tiliacora triandra against multidrug-resistant isolates of Mycobacterium tuberculosis” (Bioorg Med Chem Lett, 2012).
Converted amounts (≈) assume the structure as drawn.

What was measured:
Assay type in all cases: functional
[1] = test system: Mycobacterium tuberculosis; test: Antimycobacterial activity against ethionamide-resistant Mycobacterium tuberculosis H37Rv ATCC 35830 after 16 to 24 hrs by alamar blue assay
[2] = test system: Mycobacterium tuberculosis; test: Antimycobacterial activity against pyrazinamide-resistant Mycobacterium tuberculosis H37Rv ATCC 35828 after 16 to 24 hrs by alamar blue assay
[3] = test system: Mycobacterium tuberculosis; test: Antimycobacterial activity against isoniazid-, rifampin-resistant Mycobacterium tuberculosis after 16 to 24 hrs by alamar blue assay
[4] = test system: Mycobacterium tuberculosis; test: Antimycobacterial activity against isoniazid-, rifampin-, ethambutol-resistant Mycobacterium tuberculosis after 16 to 24 hrs by alamar blue assay
[5] = test system: Mycobacterium tuberculosis; test: Antimycobacterial activity against isoniazid-, rifampin-, streptomycin-resistant Mycobacterium tuberculosis after 16 to 24 hrs by alamar blue assay
[6] = test system: Mycobacterium tuberculosis; test: Antimycobacterial activity against isoniazid-, rifampin-, streptomycin-, ethambutol-resistant Mycobacterium tuberculosis after 16 to 24 hrs by alamar blue assay
[7] = test system: Mycobacterium tuberculosis; test: Antimycobacterial activity against isoniazid-, rifampin-, ofloxacin-, ethambutol-resistant Mycobacterium tuberculosis after 16 to 24 hrs by alamar blue assay
[8] = test system: Mycobacterium tuberculosis; test: Antimycobacterial activity against isoniazid-, rifampin-, ofloxacin-, streptomycin-resistant Mycobacterium tuberculosis after 16 to 24 hrs by alamar blue assay
[9] = test system: Mycobacterium tuberculosis; test: Antimycobacterial activity against isoniazid-, rifampin-, ofloxacin-, ethambutol-, streptomycin-resistant Mycobacterium tuberculosis after 16 to 24 hrs by alamar blue assay

| Structure (SMILES) | MIC [1] [µg/mL] | MIC [2] [µg/mL] | MIC [3] [µg/mL] | MIC [4] [µg/mL] | MIC [5] [µg/mL] | MIC [6] [µg/mL] | MIC [7] [µg/mL] | MIC [8] [µg/mL] | MIC [9] [µg/mL] |
| --- | --- | --- | --- | --- | --- | --- | --- | --- | --- |
| COc1ccc2cc1-c1cc(ccc1O)C[C@@H]1NCCc3cc4c(cc31)Oc1c(c(OC)cc3c1[C@H](C2)N(C)CC3)O4 | 6.2 (≈ 11 µM) | 6.2 (≈ 11 µM) | – | – | – | – | – | – | – |
| COc1ccc2cc1-c1cc(cc(Br)c1O)C[C@H]1c3cc4c(cc3CCN1C)Oc1c(OC)cc3c(c1O4)[C@H](C2)N(C)CC3 | 3.1 (≈ 4.73 µM) | 3.1 (≈ 4.73 µM) | – | – | – | – | – | – | – |
| CC[C@@H](CO)NCCN[C@@H](CC)CO [ETHAMBUTOL] | – | – | ≤ 2 | ≥ 8 | ≤ 2 | ≥ 8 | ≥ 8 | ≤ 2 | ≥ 8 |
| NNC(=O)c1ccncc1 [ISONIAZID] | – | – | ≥ 2 | ≥ 2 | ≥ 2 | ≥ 2 | ≥ 2 | ≥ 2 | ≥ 2 |
| CC1COc2c(N3CCN(C)CC3)c(F)cc3c(=O)c(C(=O)O)cn1c23 (stereo not drawn) [OFLOXACIN] | – | – | ≤ 2 | ≤ 2 | ≤ 2 | ≤ 2 | ≥ 4 | ≥ 4 | ≥ 4 |
| CO[C@H]1/C=C/O[C@@]2(C)Oc3c(C)c(O)c4c(O)c(c(/C=N/N5CCN(C)CC5)c(O)c4c3C2=O)NC(=O)/C(C)=C\C=C\[C@H](C)[C@H](O)[C@@H](C)[C@@H](O)[C@@H](C)[C@H](OC(C)=O)[C@@H]1C [RIFAMPIN] | – | – | ≥ 2 | ≥ 2 | ≥ 2 | ≥ 2 | ≥ 2 | ≥ 2 | ≥ 2 |
| CN[C@@H]1[C@H](O[C@H]2[C@H](O[C@H]3[C@H](O)[C@@H](O)[C@H](N=C(N)N)[C@@H](O)[C@@H]3N=C(N)N)O[C@@H](C)[C@]2(O)C=O)O[C@@H](CO)[C@H](O)[C@H]1O [STREPTOMYCIN] | – | – | ≤ 2 | ≤ 2 | ≥ 8 | ≥ 8 | ≤ 2 | ≥ 8 | ≥ 8 |
| COc1ccc2cc1-c1cc(ccc1O)C[C@H]1c3cc4c(cc3CCN1C)Oc1c(OC)cc3c(c1O4)[C@@H](C2)N(C)CC3 [TILIACORINE] | 3.1 (≈ 5.38 µM) | 6.2 (≈ 10.8 µM) | – | – | – | – | – | – | – |
| COc1ccc2cc1-c1cc(ccc1O)C[C@H]1c3cc4c(cc3CCN1C)Oc1c(OC)cc3c(c1O4)[C@H](C2)N(C)CC3 [TILIACORININE] | 3.1 (≈ 5.38 µM) | 6.2 (≈ 10.8 µM) | – | – | – | – | – | – | – |
